Data: ChEMBL document CHEMBL3885881, “DrugMatrix”

Species: Rattus norvegicus
Assay: DrugMatrix - Regimen: Daily Repeat
Type: toxicity, organism-based, Sprague-Dawley
Parameters: regimen Daily Repeat, gender Male, age 6-8 weeks
Details: in vivo, po, route oral GAVAGE, […]; for ABSOLUTE BASOPHIL / ABSOLUTE EOSINOPHIL / ABSOLUTE LYMPHOCYTE / ABSOLUTE MONOCYTE / ABSOLUTE SEGMENTED NEUTROPHIL / BASOPHIL / EOSINOPHIL / ERYTHROCYTE COUNT / HEMATOCRIT / HEMOGLOBIN / LEUKOCYTE COUNT / LYMPHOCYTE / MEAN CORPUSCULAR HEMOGLOBIN / MEAN CORPUSCULAR HEMOGLOBIN CONCENTRATION / MEAN CORPUSCULAR VOLUME / MONOCYTE / NEUTROPHIL / NUCLEATED RED BLOOD CELLS / PLATELET COUNT: tissue Blood; for ALANINE AMINOTRANSFERASE / ALBUMIN / ALKALINE PHOSPHATASE / ASPARTATE AMINOTRANSFERASE / BLOOD UREA NITROGEN / CARBON DIOXIDE / CHLORIDE / CHOLESTEROL / CREATINE PHOSPHOKINASE / CREATININE / GLUCOSE / LACTATE DEHYDROGENASE / LIPASE / PHOSPHORUS / POTASSIUM / SODIUM / TOTAL BILIRUBIN / TOTAL PROTEIN / URIC ACID: tissue Plasma
[1] = 47 mg/kg, 120 h, dose level Low, time 5 day
[2] = 250 mg/kg, 72 h, dose level High, time 3 day
[3] = 250 mg/kg, 120 h, dose level High, time 5 day

CC(=O)Nc1nnc(S(N)(=O)=O)s1 [ACETAZOLAMIDE]
ABSOLUTE BASOPHIL [1]: 0 CELLS/uL
ABSOLUTE EOSINOPHIL [1]: 0 CELLS/uL
ABSOLUTE LYMPHOCYTE [1]: 10200 CELLS/uL
ABSOLUTE MONOCYTE [1]: 261.33 CELLS/uL
ABSOLUTE SEGMENTED NEUTROPHIL [1]: 672 CELLS/uL
BASOPHIL [1]: 0%
EOSINOPHIL [1]: 0%
ERYTHROCYTE COUNT [1]: 5.43 x10E6/uL
HEMATOCRIT [1]: 33.83%
HEMOGLOBIN [1]: 13.43 G/DL
LEUKOCYTE COUNT [1]: 11.13 x10E3/uL
LYMPHOCYTE [1]: 91.67%
MEAN CORPUSCULAR HEMOGLOBIN [1]: 24.73 pg
MEAN CORPUSCULAR HEMOGLOBIN CONCENTRATION [1]: 39.7 G/DL
MEAN CORPUSCULAR VOLUME [1]: 62.3 fL
MONOCYTE [1]: 2.33%
NEUTROPHIL [1]: 6%
NUCLEATED RED BLOOD CELLS [1]: 0.33 /100WBC
PLATELET COUNT [1]: 1186.33 x10E3/uL
ALANINE AMINOTRANSFERASE [1]: 60.33 u/L
ALBUMIN [1]: 4.07 G/DL
ALKALINE PHOSPHATASE [1]: 448.67 u/L
ASPARTATE AMINOTRANSFERASE [1]: 74.67 u/L
BLOOD UREA NITROGEN [1]: 14 mg/dL
CARBON DIOXIDE [1]: 27.67 mmol/L
CHLORIDE [1]: 104 MEQ/L
CHOLESTEROL [1]: 61.33 mg/dL
CREATINE PHOSPHOKINASE [1]: 271.67 u/L
CREATININE [1]: 0.14 mg/dL
GLUCOSE [1]: 155 mg/dL
LACTATE DEHYDROGENASE [1]: 142 u/L
LIPASE [1]: 10.33 u/L
PHOSPHORUS [1]: 9.17 mg/dL
POTASSIUM [1]: 5.17 MEQ/L
SODIUM [1]: 145.83 MEQ/L
TOTAL BILIRUBIN [1]: 0.23 mg/dL
TOTAL PROTEIN [1]: 6.07 G/DL
URIC ACID [1]: 0.33 mg/dL
ABSOLUTE BASOPHIL [2]: 0 CELLS/uL
ABSOLUTE EOSINOPHIL [2]: 0 CELLS/uL
ABSOLUTE LYMPHOCYTE [2]: 8200.33 CELLS/uL
ABSOLUTE MONOCYTE [2]: 117.33 CELLS/uL
ABSOLUTE SEGMENTED NEUTROPHIL [2]: 382.33 CELLS/uL
BASOPHIL [2]: 0%
EOSINOPHIL [2]: 0%
ERYTHROCYTE COUNT [2]: 5.26 x10E6/uL
HEMATOCRIT [2]: 32.4%
HEMOGLOBIN [2]: 12.8 G/DL
LEUKOCYTE COUNT [2]: 8.7 x10E3/uL
LYMPHOCYTE [2]: 94.33%
MEAN CORPUSCULAR HEMOGLOBIN [2]: 24.33 pg
MEAN CORPUSCULAR HEMOGLOBIN CONCENTRATION [2]: 39.5 G/DL
MEAN CORPUSCULAR VOLUME [2]: 61.57 fL
MONOCYTE [2]: 1.33%
NEUTROPHIL [2]: 4.33%
NUCLEATED RED BLOOD CELLS [2]: 0 /100WBC
PLATELET COUNT [2]: 1163 x10E3/uL
ALANINE AMINOTRANSFERASE [2]: 77 u/L
ALBUMIN [2]: 3.83 G/DL
ALKALINE PHOSPHATASE [2]: 352.67 u/L
ASPARTATE AMINOTRANSFERASE [2]: 83.67 u/L
BLOOD UREA NITROGEN [2]: 11.67 mg/dL
CARBON DIOXIDE [2]: 29.67 mmol/L
CHLORIDE [2]: 101.67 MEQ/L
CHOLESTEROL [2]: 73.33 mg/dL
CREATINE PHOSPHOKINASE [2]: 296.33 u/L
CREATININE [2]: 0.37 mg/dL
GLUCOSE [2]: 157 mg/dL
LACTATE DEHYDROGENASE [2]: 154 u/L
LIPASE [2]: 11.33 u/L
PHOSPHORUS [2]: 9.67 mg/dL
POTASSIUM [2]: 4.85 MEQ/L
SODIUM [2]: 144.27 MEQ/L
TOTAL BILIRUBIN [2]: 0.2 mg/dL
TOTAL PROTEIN [2]: 5.67 G/DL
URIC ACID [2]: 0.33 mg/dL
ABSOLUTE BASOPHIL [3]: 0 CELLS/uL
ABSOLUTE EOSINOPHIL [3]: 64 CELLS/uL
ABSOLUTE LYMPHOCYTE [3]: 8180.67 CELLS/uL
ABSOLUTE MONOCYTE [3]: 154.33 CELLS/uL
ABSOLUTE SEGMENTED NEUTROPHIL [3]: 767.67 CELLS/uL
BASOPHIL [3]: 0%
EOSINOPHIL [3]: 0.67%
ERYTHROCYTE COUNT [3]: 5.67 x10E6/uL
HEMATOCRIT [3]: 35.23%
HEMOGLOBIN [3]: 13.9 G/DL
LEUKOCYTE COUNT [3]: 9.17 x10E3/uL
LYMPHOCYTE [3]: 89.33%
MEAN CORPUSCULAR HEMOGLOBIN [3]: 24.53 pg
MEAN CORPUSCULAR HEMOGLOBIN CONCENTRATION [3]: 39.47 G/DL
MEAN CORPUSCULAR VOLUME [3]: 62.1 fL
MONOCYTE [3]: 1.67%
NEUTROPHIL [3]: 8.33%
NUCLEATED RED BLOOD CELLS [3]: 0 /100WBC
PLATELET COUNT [3]: 1233.67 x10E3/uL
ALANINE AMINOTRANSFERASE [3]: 59 u/L
ALBUMIN [3]: 4.03 G/DL
ALKALINE PHOSPHATASE [3]: 354.67 u/L
ASPARTATE AMINOTRANSFERASE [3]: 71 u/L
BLOOD UREA NITROGEN [3]: 15 mg/dL
CARBON DIOXIDE [3]: 23.33 mmol/L
CHLORIDE [3]: 109.33 MEQ/L
CHOLESTEROL [3]: 66 mg/dL
CREATINE PHOSPHOKINASE [3]: 397 u/L
CREATININE [3]: 0.18 mg/dL
GLUCOSE [3]: 141.67 mg/dL
LACTATE DEHYDROGENASE [3]: 111.33 u/L
LIPASE [3]: 10.33 u/L
PHOSPHORUS [3]: 8.57 mg/dL
POTASSIUM [3]: 5.2 MEQ/L
SODIUM [3]: 146 MEQ/L
TOTAL BILIRUBIN [3]: 0.17 mg/dL
TOTAL PROTEIN [3]: 6.1 G/DL
URIC ACID [3]: 0.53 mg/dL
